The source of these data is ChEMBL document CHEMBL1926681, “Novel inhibitors of epidermal growth factor receptor: (4-(Arylamino)-7H-pyrrolo[2,3-d]pyrimidin-6-yl)(1H-indol-2-yl)methanones and (1H-indol-2-yl)(4-(phenylamino)thieno[2,3-d]pyrimidin-6-yl)methanones” (Bioorg Med Chem, 2012).

Activity calls are given as the source filed them. The calls are words filed in the database; no cut-off is given here.

A word on the inhibition: it is the relative decrease from the control value, in per cent. The IC50 is the concentration needed to halve the response being measured. A low value points to inhibition by little substance.

The target in test [1] is T1, Epidermal growth factor receptor (Homo sapiens, UniProt P00533). In words: Inhibition of EGFR using poly(Glu,Tyr)4:1 as substrate and [gamma33P]ATP at 1 uM after 60 mins by scintillation counting.
Test [2] deals with Receptor tyrosine-protein kinase erbB-2 (Homo sapiens) (UniProt P04626). In words: Inhibition of Erbb2 using poly(Glu,Tyr)4:1 as substrate and [gamma33P]ATP at 1 uM after 60 mins by scintillation counting.
The target in test [3] is Vascular endothelial growth factor receptor 2 (Homo sapiens) (UniProt P35968). In words: Inhibition of VEGFR2 using poly(Glu,Tyr)4:1 as substrate and [gamma33P]ATP at 1 uM after 60 mins by scintillation counting.
The target in test [4] is Tyrosine-protein kinase ABL1 (Homo sapiens) (UniProt P00519). In words: Inhibition of ABL1 using poly(Ala, Glu, Lys, Tyr) as substrate and [gamma33P]ATP at 1 uM after 60 mins by scintillation counting.
In test [5] the target is Hepatocyte growth factor receptor (Homo sapiens) (UniProt P08581). The experiment in a line: Inhibition of MET using poly(Ala, Glu, Lys, Tyr) as substrate and [gamma33P]ATP at 1 uM after 60 mins by scintillation counting.
The target in test [6] is T1, Epidermal growth factor receptor. In words: Inhibition of EGFR using poly(Glu,Tyr)4:1 as substrate and [gamma33P]ATP after 60 mins by scintillation counting.

Hepatocyte growth factor receptor (Homo sapiens), sequence (P08581 whole entry): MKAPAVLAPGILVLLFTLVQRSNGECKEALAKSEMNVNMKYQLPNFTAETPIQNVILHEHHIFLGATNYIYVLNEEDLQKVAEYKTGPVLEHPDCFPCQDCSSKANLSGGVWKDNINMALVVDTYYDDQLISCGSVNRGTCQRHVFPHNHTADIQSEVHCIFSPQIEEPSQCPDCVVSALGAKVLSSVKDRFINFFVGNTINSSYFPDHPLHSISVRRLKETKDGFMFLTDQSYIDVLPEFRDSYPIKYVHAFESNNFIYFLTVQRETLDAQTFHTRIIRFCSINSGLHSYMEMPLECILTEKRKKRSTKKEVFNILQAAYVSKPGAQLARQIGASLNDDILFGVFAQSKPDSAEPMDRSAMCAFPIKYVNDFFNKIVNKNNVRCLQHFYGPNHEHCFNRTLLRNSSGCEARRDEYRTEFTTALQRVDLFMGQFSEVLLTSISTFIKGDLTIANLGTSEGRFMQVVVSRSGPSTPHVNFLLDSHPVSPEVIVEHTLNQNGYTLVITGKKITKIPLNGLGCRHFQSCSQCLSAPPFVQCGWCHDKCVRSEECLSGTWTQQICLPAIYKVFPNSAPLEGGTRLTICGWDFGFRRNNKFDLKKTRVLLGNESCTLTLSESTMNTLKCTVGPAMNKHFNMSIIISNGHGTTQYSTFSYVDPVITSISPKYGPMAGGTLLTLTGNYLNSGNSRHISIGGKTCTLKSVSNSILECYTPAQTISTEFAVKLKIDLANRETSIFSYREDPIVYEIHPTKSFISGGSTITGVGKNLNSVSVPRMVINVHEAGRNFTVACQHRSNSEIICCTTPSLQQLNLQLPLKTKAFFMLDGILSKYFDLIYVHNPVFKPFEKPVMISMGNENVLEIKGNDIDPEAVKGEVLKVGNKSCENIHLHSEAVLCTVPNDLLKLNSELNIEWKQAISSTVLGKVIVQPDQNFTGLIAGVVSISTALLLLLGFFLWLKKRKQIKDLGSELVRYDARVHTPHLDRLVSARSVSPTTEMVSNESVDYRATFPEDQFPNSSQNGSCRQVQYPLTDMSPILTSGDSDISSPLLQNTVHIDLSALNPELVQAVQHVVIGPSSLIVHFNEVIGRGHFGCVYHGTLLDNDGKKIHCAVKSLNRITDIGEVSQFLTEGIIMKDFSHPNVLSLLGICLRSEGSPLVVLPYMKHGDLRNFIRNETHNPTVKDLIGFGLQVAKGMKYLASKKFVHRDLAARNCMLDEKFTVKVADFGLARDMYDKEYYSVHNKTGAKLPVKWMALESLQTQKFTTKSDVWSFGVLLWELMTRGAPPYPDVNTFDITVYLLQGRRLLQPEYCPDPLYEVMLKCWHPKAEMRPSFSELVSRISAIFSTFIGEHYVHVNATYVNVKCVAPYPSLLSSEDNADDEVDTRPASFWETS
Receptor tyrosine-protein kinase erbB-2 (Homo sapiens), sequence (P04626 whole entry): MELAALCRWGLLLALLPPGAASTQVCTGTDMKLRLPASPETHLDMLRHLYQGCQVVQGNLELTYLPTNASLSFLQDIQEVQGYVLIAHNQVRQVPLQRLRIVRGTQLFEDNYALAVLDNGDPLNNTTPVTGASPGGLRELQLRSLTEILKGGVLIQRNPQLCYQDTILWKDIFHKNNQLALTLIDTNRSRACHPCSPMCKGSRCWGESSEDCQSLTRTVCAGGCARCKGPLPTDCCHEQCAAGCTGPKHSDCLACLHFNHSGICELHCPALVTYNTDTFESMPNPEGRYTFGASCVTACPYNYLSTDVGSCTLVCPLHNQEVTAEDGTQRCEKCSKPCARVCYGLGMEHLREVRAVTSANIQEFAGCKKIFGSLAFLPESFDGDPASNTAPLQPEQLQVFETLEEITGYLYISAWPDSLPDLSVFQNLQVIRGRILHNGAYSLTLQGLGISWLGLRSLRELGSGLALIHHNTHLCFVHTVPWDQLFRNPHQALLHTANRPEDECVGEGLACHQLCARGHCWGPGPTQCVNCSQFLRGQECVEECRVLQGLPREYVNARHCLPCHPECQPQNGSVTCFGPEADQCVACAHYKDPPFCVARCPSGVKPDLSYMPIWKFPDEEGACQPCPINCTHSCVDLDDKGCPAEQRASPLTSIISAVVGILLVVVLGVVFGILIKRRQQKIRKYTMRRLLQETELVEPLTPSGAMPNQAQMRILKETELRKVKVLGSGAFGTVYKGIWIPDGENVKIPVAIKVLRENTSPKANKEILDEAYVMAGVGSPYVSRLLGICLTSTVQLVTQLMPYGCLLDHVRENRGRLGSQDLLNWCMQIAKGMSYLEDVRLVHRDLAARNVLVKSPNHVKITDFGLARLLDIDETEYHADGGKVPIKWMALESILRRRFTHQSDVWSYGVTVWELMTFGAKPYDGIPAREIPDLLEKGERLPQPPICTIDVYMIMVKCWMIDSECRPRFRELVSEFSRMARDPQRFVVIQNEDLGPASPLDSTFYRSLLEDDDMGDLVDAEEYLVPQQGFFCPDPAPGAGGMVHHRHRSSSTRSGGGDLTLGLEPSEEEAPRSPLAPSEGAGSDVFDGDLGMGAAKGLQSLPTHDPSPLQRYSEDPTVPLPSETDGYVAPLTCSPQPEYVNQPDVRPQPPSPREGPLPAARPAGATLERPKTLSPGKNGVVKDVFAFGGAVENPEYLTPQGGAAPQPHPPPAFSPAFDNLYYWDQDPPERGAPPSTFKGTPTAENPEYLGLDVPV
Vascular endothelial growth factor receptor 2 (Homo sapiens), sequence (P35968 whole entry): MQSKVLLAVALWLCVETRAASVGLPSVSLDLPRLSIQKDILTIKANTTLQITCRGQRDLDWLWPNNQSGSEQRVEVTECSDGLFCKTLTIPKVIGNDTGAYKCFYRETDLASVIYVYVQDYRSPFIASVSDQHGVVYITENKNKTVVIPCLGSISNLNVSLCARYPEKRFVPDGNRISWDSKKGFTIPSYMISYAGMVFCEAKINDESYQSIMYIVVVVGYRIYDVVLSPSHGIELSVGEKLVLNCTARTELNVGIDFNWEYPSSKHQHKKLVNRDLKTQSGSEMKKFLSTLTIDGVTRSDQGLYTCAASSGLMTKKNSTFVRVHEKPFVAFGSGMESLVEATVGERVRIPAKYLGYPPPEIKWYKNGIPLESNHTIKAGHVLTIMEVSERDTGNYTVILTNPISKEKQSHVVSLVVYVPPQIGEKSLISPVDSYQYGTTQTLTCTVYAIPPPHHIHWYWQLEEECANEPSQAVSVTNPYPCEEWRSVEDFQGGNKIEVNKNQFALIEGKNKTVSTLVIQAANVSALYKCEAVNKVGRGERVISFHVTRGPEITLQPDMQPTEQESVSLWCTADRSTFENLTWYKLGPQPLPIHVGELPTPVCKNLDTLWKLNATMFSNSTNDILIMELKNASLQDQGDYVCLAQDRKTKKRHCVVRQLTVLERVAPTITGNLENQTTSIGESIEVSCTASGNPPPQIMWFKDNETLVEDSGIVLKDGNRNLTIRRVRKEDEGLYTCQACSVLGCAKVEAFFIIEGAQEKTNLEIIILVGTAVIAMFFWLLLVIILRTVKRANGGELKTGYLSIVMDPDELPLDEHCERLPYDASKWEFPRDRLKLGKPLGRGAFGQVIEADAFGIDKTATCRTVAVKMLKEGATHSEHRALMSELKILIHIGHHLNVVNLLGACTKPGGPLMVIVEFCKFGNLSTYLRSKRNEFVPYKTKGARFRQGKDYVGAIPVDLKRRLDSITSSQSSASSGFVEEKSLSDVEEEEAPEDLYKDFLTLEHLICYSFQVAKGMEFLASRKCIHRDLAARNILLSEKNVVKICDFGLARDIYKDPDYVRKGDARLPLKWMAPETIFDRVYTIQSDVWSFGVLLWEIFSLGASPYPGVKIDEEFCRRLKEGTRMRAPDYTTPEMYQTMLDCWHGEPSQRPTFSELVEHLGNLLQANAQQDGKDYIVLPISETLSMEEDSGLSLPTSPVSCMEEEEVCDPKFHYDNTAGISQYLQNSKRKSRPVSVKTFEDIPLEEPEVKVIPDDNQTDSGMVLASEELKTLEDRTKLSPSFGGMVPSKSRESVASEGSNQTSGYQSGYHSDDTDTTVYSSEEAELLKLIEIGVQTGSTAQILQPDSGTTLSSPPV
Tyrosine-protein kinase ABL1 (Homo sapiens), sequence (P00519 whole entry): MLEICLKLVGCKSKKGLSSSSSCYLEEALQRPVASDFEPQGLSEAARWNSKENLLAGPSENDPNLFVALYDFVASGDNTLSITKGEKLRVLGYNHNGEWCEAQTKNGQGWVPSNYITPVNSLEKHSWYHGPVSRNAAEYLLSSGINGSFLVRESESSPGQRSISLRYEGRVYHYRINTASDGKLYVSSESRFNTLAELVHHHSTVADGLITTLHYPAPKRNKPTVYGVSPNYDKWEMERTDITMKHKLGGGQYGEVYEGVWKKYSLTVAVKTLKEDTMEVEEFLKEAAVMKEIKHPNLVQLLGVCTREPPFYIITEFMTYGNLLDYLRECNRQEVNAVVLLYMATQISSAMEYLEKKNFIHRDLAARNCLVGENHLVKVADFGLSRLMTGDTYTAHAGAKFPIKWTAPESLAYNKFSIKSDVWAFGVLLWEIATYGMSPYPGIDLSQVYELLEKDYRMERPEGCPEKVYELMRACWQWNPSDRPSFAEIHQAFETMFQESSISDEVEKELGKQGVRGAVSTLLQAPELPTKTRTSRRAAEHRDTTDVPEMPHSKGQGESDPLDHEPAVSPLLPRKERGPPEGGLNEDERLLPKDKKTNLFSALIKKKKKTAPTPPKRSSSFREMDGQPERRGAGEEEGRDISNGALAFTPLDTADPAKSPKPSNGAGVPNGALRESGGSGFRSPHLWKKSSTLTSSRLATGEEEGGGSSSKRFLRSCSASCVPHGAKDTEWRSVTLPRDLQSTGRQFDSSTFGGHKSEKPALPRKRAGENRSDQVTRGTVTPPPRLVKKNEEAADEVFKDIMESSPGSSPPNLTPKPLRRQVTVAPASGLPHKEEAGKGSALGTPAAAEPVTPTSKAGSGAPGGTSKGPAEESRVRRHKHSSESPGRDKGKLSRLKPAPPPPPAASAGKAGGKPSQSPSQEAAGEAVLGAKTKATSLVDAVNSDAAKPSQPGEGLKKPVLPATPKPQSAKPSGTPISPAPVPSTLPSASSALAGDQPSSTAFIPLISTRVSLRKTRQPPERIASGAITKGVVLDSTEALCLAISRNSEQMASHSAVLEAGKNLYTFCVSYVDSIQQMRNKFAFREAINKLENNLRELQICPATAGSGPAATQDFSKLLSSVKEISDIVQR

As for `O=C(c1cc2ccccc2[nH]1)c1cc2c(Nc3ccc(Cl)cc3)ncnc2[nH]1`, the inhibition in test [1] was found to be 68%; in test [2] it was 24%; in test [3], 47%. For the same compound, the inhibition entry in test [4] and in test [5] was “inactive” in each case.

Regarding `C#Cc1cccc(Nc2ncnc3[nH]c(C(=O)c4cc5ccccc5[nH]4)cc23)c1`, the inhibition in test [1] was found to be 83%; in test [2], 70%; in test [3] it was 5%. Also, the inhibition entry in test [4] and in test [5] was “inactive” in each case.

Turning to `COc1cnc2[nH]c(C(=O)c3cc4c(Nc5cccc(I)c5)ncnc4[nH]3)cc2c1`, the values for the inhibition in test [1], in test [2] and in test [3] were 77%, 20% and 20%, respectively. The inhibition entry in test [4] and in test [5] was “inactive” in each case.

As for `O=C(c1cc2ccccc2[nH]1)c1cc2c(Nc3ccc(OCc4cccc(F)c4)cc3Cl)ncnc2s1`, the inhibition in test [1] came out at 91%; in test [2] it was 57%; in test [3], 29%. In test [6], this compound displayed an IC50 of 18.5 nM. Moreover, the inhibition entry in test [4] and in test [5] was “inactive” in each case.

Consider `C[C@@H](Nc1ncnc2sc(C(=O)c3cc4ccccc4[nH]3)cc12)c1ccccc1`, for which the inhibition in test [1] was determined as 88%; in test [2], 61%; in test [3], 5%. Further, the inhibition result in test [4] and in test [5] was “inactive” in each case.

Regarding `O=C(c1cc2ccccc2s1)c1cc2c(Nc3ccc(F)c(Cl)c3)ncnc2s1`, the inhibition was 99% in test [1], 76% in test [2] and 22% in test [3]. Further, the IC50 in test [6] came out at 10.8 nM. For the same compound, the inhibition result in test [4] and in test [5] was “inactive” each time.

For the compound `O=C(c1cc2ccccc2[nH]1)c1cc2c(Nc3ccc(O)cc3)ncnc2[nH]1`, the values for the inhibition in test [1], in test [2] and in test [3] were 57%, 7% and 31%, respectively. For the same compound, the inhibition result in test [4] and in test [5] was “inactive” throughout.

On to `O=C(c1cc2ccccc2[nH]1)c1cc2c(Nc3ccc(F)cc3)ncnc2s1`, for which the inhibition stood at 96% in test [1], 50% in test [2] and 45% in test [3]. Moreover, the IC50 in test [6] worked out at 43.7 nM. In addition, the inhibition entry in test [4] and in test [5] was “inactive” each time.

As to `O=C(c1cc2ccccc2o1)c1cc2c(Nc3ccc(F)c(Cl)c3)ncnc2s1`, the figures for the inhibition in test [1], in test [2] and in test [3] were 85%, 88% and 51%, respectively. In addition, the inhibition result in test [4] and in test [5] was “inactive” throughout.

`O=C(c1cc2ccccc2[nH]1)c1cc2c(Nc3ccc(Br)cc3F)ncnc2[nH]1`: the figures for the inhibition in test [1], in test [2] and in test [3] were 50%, 14% and 22%, respectively. Moreover, the inhibition entry in test [4] and in test [5] was “inactive” throughout.

On to `O=C(c1cc2ccccc2[nH]1)c1cc2c(Nc3cccc(C(F)(F)F)c3)ncnc2s1`, for which the inhibition was found to be 79% in test [1], 42% in test [2] and 29% in test [3]. The inhibition result in test [4] and in test [5] was “inactive” throughout.

Turning to `O=C(c1cc2ccccc2[nH]1)c1cc2c(Nc3ccc(Cl)cc3)ncnc2s1`, the inhibition is 80% in test [1], 46% in test [2] and 19% in test [3]. In addition, the inhibition entry in test [4] and in test [5] was “inactive” each time.

For `O=C(c1cc2ccccc2[nH]1)c1cc2c(NCc3ccccc3)ncnc2[nH]1`, the inhibition in test [1] was 55%; in test [3], 13%. Besides, the inhibition result in test [4] and in test [5] was “inactive” throughout.

In the case of `O=C(c1cc2ccccc2[nH]1)c1cc2c(Nc3ccc(OCc4cccc(F)c4)cc3Cl)ncnc2[nH]1`, the inhibition in test [1] was determined as 77%; in test [2], 13%; in test [3] it was 53%. In addition, the inhibition entry in test [4] and in test [5] was “inactive” in each case.

`CN(c1ccc(F)c(Cl)c1)c1ncnc2sc(C(=O)c3cc4ccccc4[nH]3)cc12`: the inhibition in test [1] was 22%; in test [2] it was 83%; in test [3] it was 23%. The inhibition result in test [4] and in test [5] was “inactive” each time.

`O=C(c1cc2cc(O)ccc2[nH]1)c1cc2cncnc2[nH]1`: the inhibition in test [1], in test [2] and in test [3] was 0% in each case. Besides, the inhibition result in test [4] and in test [5] was “inactive” throughout.

`O=C(c1cc2ccccc2[nH]1)c1cc2c(NCc3ccccc3)ncnc2s1`: the values for the inhibition in test [1], in test [2] and in test [3] were 77%, 38% and 17%, respectively. Besides, the inhibition entry in test [4] and in test [5] was “inactive” throughout.

As for `O=C(c1cc2ccccc2[nH]1)c1cc2c(Nc3ccc(C(F)(F)F)cc3)ncnc2s1`, the results for the inhibition in test [1], in test [2] and in test [3] were 43%, 34% and 24%, respectively. For the same compound, the inhibition result in test [4] and in test [5] was “inactive” in each case.

In the case of `COc1ccc2[nH]c(C(=O)c3cc4c(Nc5cccc(I)c5)ncnc4[nH]3)cc2c1`, the inhibition in test [1] was found to be 88%; in test [2], 25%; in test [3], 17%. In addition, the inhibition result in test [4] and in test [5] was “inactive” each time.

As for `O=C(c1cc2ccccc2[nH]1)c1cc2c(Nc3ccc(Br)cc3F)ncnc2s1`, the inhibition in test [1] is 82%; in test [2], 51%; in test [3], 46%. The inhibition entry in test [4] and in test [5] was “inactive” each time.

For `O=C(c1cc2ccccc2[nH]1)c1cc2c(Nc3ccc(F)c(Cl)c3)ncnc2[nH]1`, the inhibition in test [1] was 88%; in test [2], 22%; in test [3], 47%. For the same compound, the inhibition entry in test [4] and in test [5] was “inactive” throughout.

Turning to `O=C(c1cc2ccccc2[nH]1)c1cc2c(Nc3cccc(I)c3)ncnc2[nH]1`, the inhibition was determined as 88% in test [1], 52% in test [2] and 10% in test [3]. Also, the inhibition entry in test [4] and in test [5] was “inactive” each time.

For the compound `O=C(c1cc2ccccc2[nH]1)c1cc2c(Nc3cccc(I)c3)ncnc2s1`, the inhibition in test [1] is 73%; in test [2] it was 75%; in test [3], 0%. Moreover, the inhibition result in test [4] and in test [5] was “inactive” in each case.

Regarding `C[C@@H](Nc1ncnc2[nH]c(C(=O)c3cc4ccccc4[nH]3)cc12)c1ccccc1`, the inhibition stood at 82% in test [1], 37% in test [2] and 28% in test [3]. For the same compound, the inhibition result in test [4] and in test [5] was “inactive” throughout.
